Test in all cases: Antimicrobial activity, agar well diffusion method
Holding throughout (format): cell-based
What all share (conditions): Dose 0.6 mg/disk, dwell = 6 mm
A general note: A growth-free zone around the sample is the usual read-out of agar diffusion tests.

One assay relates to Klebsiella sp. An excerpt: (§1) Eighteen tested microorganisms including five Gram-positive bacteria (Bacillus subtilis ATCC 6633, Bacillus amyloliquefaciens 4BCL-YT, Staphylococcus aureus ATCC 25923, Listeria monocytogenes NBIMCC 8632, Enterococcus faecalis ATCC 19433), five Gram-negative bacteria (Salmonella enteritidis ATCC 13076, Klebsiella sp.—clinical isolate, Escherichia coli ATCC 25922, Proteus vulgaris ATCC 6380, Pseudomonas aeruginosa ATCC 9027), two yeasts (Candida albicans NBIMCC 74, Saccharomyces cerevisiae ATCC 9763) and six fungi (Aspergillus niger ATCC 1015, Aspergillus flavus, Penicillium sp., Rhizopus sp., Mucor sp.—plant isolates, Fusarium moniliforme ATCC 38932) from the collection of the Department of Microbiology at the University of Food Technologies—Plovdiv, Bulgaria, were selected for the antimicrobial activity test.
(§2) The antimicrobial activity of the samples was determined by the agar well diffusion method. The tested bacteria B. subtilis and B. amyloliquefaciens were cultured on LBG agar at 30 °C. The test bacteria S. aureus, L. monocytogenes, E. faecalis, S. enteritidis, Klebsiella sp., E. coli, P. vulgaris and P. aeruginosa were cultured on LBG agar at 37 °C for 24 h. The yeast C. albicans was cultured on MEA at 37 °C, while S. cerevisiae was cultured on MEA at 30 °C for 24 h. The fungi A. niger, A. flavus, Penicillium sp., Rhizopus sp., Mucor sp., and F. moniliforme were grown on MEA at 30 °C for 7 days or until sporulation.
(§3) The inocula of the tested bacteria/yeasts were prepared by homogenization of a small amount of biomass in 5 mL of sterile 0.5% NaCl. The inocula of tested fungi were prepared by the addition of 5 mL of sterile 0.5% NaCl into the tubes. After stirring by vortex V-1 plus (Biosan), they were filtered and replaced in other tubes before use. The number of viable cells and fungal spores was determined using a bacterial counting chamber Thoma (Poly-Optik, GmbH, Bad Blankenburg, Germany). Their final concentrations were adjusted to 10^8 cfu/mL for bacterial/yeast cells and 10^5 cfu/mL for fungal spores and then inoculated in preliminarily melted and tempered at 45–48 °C LBG/MEA agar media. Next, the inoculated media were transferred in a quantity of 18 mL in sterile Petri plates (d = 90 mm) (Gosselin™, Hazebrouck, France) and allowed to harden. Then, six wells (d = 6 mm) per plate were cut, and triplicates of 60 μL of each extract were pipetted into the agar wells. The Petri plates were incubated in identical conditions.
(§4) The antimicrobial activity was determined by measuring the diameter of the inhibition zones around the wells on the 24th and 48th h of incubation. […]

Assay [1] concerns Pseudomonas aeruginosa ATCC 9027.
Text: as §1, §2, §3, §4

Another assay relates to Saccharomyces cerevisiae.
Text: as §1, §2, §3, §4

The test system of assay [2] is Escherichia coli ATCC 25922.
Text: as §1, §2, §3, §4

On to `CC(C)C(N)Cc1ccccc1` (stereo not shown) [Compound 3, 3-Methyl-1-phenylbutan-2-amine], for which the “Inhibition Zones” value was 8 mm in the assay with Klebsiella sp., 9 mm in assay [1] and 8 mm in the assay on Saccharomyces cerevisiae.
For `CC(=O)NC(Cc1ccccc1)C(C)C` (stereo not shown) [Compound 4a, N-(3-methyl-1-phenylbutan-2-yl)acetamide], the “Inhibition Zones” value in assay [2] is on record as 8 mm.

For the origin of these results see paper PMC9953468, “In Silico, In Vitro, and Ex Vivo Biological Activity of Some Novel Mebeverine Precursors” (Biomedicines, 2023).
